“Also recorded” adds a separate entry of the source.
Legend:
[1] = system: human microbiota; details: cited from earlier work
[2] = system: Drosophila model of HD; test: Aggregation of mHDx1 in a Drosophila model of HD (immunohistochemistry, Western blot); type: in vivo
Text: FIG. IB is an image of a Western blot (WB) of different batch pooled larvae examined for MHDx1 aggregation. FIG. 1C is a series of images depicting immunohistochemistry similar to FIG. 1A except that adult flies were used in FIG. 1C. FIG. 1D depicts a WB similar to FIG. 1B, except that adult flies were used in FIG. 1D. The Gal4 induction system with mHDx1 (120Q) downstream of UAS (upstream activation sequence) and the gal4 transactivator downstream of Drosophila neuronal-specific promoter Elav was used to induce the expression of mHDx1 in the nervous system of offspring. In FIG. 1C, the central brain region is shown.
Without being limited by theory, it is contemplated that intestinal microbiota contributes to the aggregation of mutant HTT in the enteric nervous stem (ENS). In a Drosophila model of HD (Barbaro et al., 2015), inducing the expression of a mutant HTT exon-1 fragment (mHDx1) in the nervous system promoted aggregation in the ENS of larvae in the vicinity of the gut (FIGS. 1A and 1B). The initial appearance of aggregates in the larval ENS is thus observed.
Accordingly, it is observed herein that treatment with an antibiotic in accordance with some embodiments herein decreases aggregates of mutant Huntingtin protein.

[3] = system: humans; details: cited from earlier work
[4] = system: Parkinson's disease patients; details: pilot study; cited from earlier work
[5] = system: Rett mice; test: Behaviors of Rett mice (nest building, climbing, wire-mesh hanging, clasping); type: in vivo
Method: FIG. 58 is a graph depicting that rifaximin-treated mice make more attempts at climbing a wired-mesh cylinder within a 2 min time allowed. FIG. 5C is a graph depicting that testing muscle strength by wired mesh hanging assay. […] N=6. Scoring and procedures were as described in Southwell et al., 2009.
N=6. Scoring and procedures were as described in Southwell et al., 2009.
Nest building is indicative of rodents' well-being, daily activity, positive motivational state, and healthy brain functions (Jirkof, 2014).
Nest building is indicative of rodents' wellbeing, daily activity, positive motivational state, and healthy brain functions (Jirkof, 2014). […] This is consistent with the improved mobility in Rett mice observed herein. The data herein can be confirmed with additional behavioral tests, including rotarod, beam crossing, and open field. These studies can confirm benefits of rifaximin therapy on the CNS pathology and/or aberrant behaviors in Rett syndrome.
This is based on observations that male mice start displaying symptoms when they are ˜10 weeks old.
Hind limb clasping is a marker of disease progression in Rett syndrome and other diseases with motor defects. In this assay animals were suspended by the tail ˜30 cm above the tabletop for 1 min and recorded with a video camera. No clasping is scored as 0, periodic clasping and extension is scored as 1, and full hind limb clasping was scored with occasional extension is scored as 2. Severe clasping is scored as 3.

[6] = system: Rett mice; test: Whole body plethysmography in Rett mice; type: in vivo; details: predicted
Text: Whole body plethysmography are used to measure breathing irregularities in Rett mice. This phenotype is common in Rett patients (Lombardi et al., 2015). An accumulating body of literature supports the potential importance of vagus nerve in the regulation of breathing. We predict that intestinal dysbiosis in Rett impairs the vagus nerve activity and exacerbate the breathing abnormalities. […] The Buxco Fine Pointe Unrestrained Whole Body Plethysmograph system from Data Sciences International (DSI; St. Paul, Minn.) are used for these measurements.

[7] = system: Rett mice; test: Learning and memory of Rett mice (novel object recognition, Barnes Maze); type: in vivo; details: rifaximin-treated Rett mice; expected
Method: GF WT and Rett mice are also tested for these behaviors the results are compared with the rifaxitnin-treated cohorts.
We previously used this test in an environmental mouse model of autism (Hsiao et al., 2013). Rodents in general spend more time exploring a novel object than a familiar one. The ability to choose the novel object is indicative of learning and recognition memory. The novel object recognition task is conducted in an open field arena with two different kinds of objects. Both objects are generally consistent in height and volume, but are different in shape and appearance. During habituation, the animals are allowed to explore an empty arena. […] The time spent exploring each object and the discrimination index percentage are recorded. This test is used, among other experiments, to assess the cognitive ability of vehicle- and rifaximin-treated Rett mice as well as GF cohorts and quantify and compare the results.
In this test mice learn the position of a hole to escape the brightly lit open surface of the maze. […] Rett mice as well as GF cohorts and quantify and compare the results. For data acquisition the amount of time required for the animal to locate the goal box using visuo-spatial cues surrounding the maze periphery are measured. The number of errors the mice make are recorded to find the escape hole. […]

[8] = system: Rett mice; test: Neurogenesis in Rett mice (doublecortin and ki67 staining); type: in vivo
Text: FIGS. 18A-C are a series of graphs and images depicting effects of microbiota on neurogenesis in Rett mice in accordance with some embodiments herein. FIG. 18A is a series of images depicting doublecortin staining of bilateral hippocampus in vehicle-treated (top panels) and rifaximin-treated Rett mice (bottm panels). FIG. 18B is a graph showing quantification of doublecortin positive cells in the dentate gyrus of bilateral hippocampi (2 layers) from 4 vehicle-treated and 6 rifaximin-treated animals, FIG. 18C is a series of images showing ki67 positive cells (arrows) in the SVZ (subventricular zone) of vehicle (top) and rifaximin-treated Rett mice. Boxed areas highlight regions with dramatic changes (considerably more ki67-positive cells are observed in the rifaximin-treated mose). NeuN staining for neurons (NeuN) is observed as bright foci throughout.

[9] = system: Rett mice; test: Staining of brain sections of Rett mice for astrocyte and microglial markers; type: in vivo
Text: FIG. 15A depicts staining with markers of activated astrocyte GFAP (center column) and GS (right column); Overlay of GFAP and GS is shown in left column. […] The Iba-1 and CD11 generally colocalized throughout the hippocampal region, but Iba-1 was expressed at higher levels in the vehicle-treated group (see, e.g, arrow), and lower levels in the rifaximin-treated group.
The finding can be re-confirmed and quantified for statistical analysis. Elevation of GFAP and GS is linked to astrocytes activation and inflammation. Astrocytes are recognized as therapeutic targets for neuroinflammation, neurodegeneration, and neuropsychiatric disorders. Subsets of gut microbes produce molecules, which reach the CNS, lower astrocytes activation, and subsequently reduce the production of inflammatory cytokines (Rothhamrner et al., 2016). Gut bacteria also greatly influence the development of microglia, which are the CNS immune cells (Erny et al., 2015).
For example, animals can be gavaged with known amounts of rifaximin to ensure equal delivery.

[10] = system: Rett mice; test: Semi-quantitative PCR of gut bacteria in Rett mice; type: in vivo
Text: FIG. 7 is an image depicting the results of semi-quantitative PCR of Rett mice of some embodiments. […] Top panels are Eubacteria amplification used as a positive control.
FIG. 19 is an image showing the results of semi-quantitative PCR in WT and Rett mice in accordance with some embodiments herein.
Less is known about the role of Tenericutes in human health. In animals however, the presence of Tenericutes correlates with digestion of crude fiber (Niu et al., 2015).

[11] = system: Rett mice; test: GI pathology and metabolic changes in Rett mice; type: in vivo
Text: In FIG. 14A, each point represents a mouse. N=6 each in FIG. 14C. […] N=6 for FIGS. 14E and 14F.
It was examined whether eliminating the intestinal microbiota of Rett mice alters GI pathology.

[12] = system: Hepatic Encephalopathy (HE) patients; details: clinical studies; cited from earlier work
[13] = brain sections from the cortical regions, some of the treated Rett mice, compared to vehicle
[14] = Rett mice treated after weaning for 6 weeks

CO[C@H]1/C=C/O[C@@]2(C)Oc3c(C)c(O)c4c(O)c(c5c(nc6cc(C)ccn65)c4c3C2=O)NC(=O)/C(C)=C\C=C\[C@H](C)[C@H](O)[C@@H](C)[C@@H](O)[C@@H](C)[C@H](OC(C)=O)[C@@H]1C [rifaximin]
proliferation of probiotic species including Bifidobacteria [1]: promotes the proliferation | aggregation of mHDx1 in larvae ([2]; Drosophila HD larvae generated in the presence of rifaximin): lowers the aggregation of mHDx1 | aggregation of mHDx1 in the CNS of adult flies ([2]; adult HD flies): reduces the aggregation of mHDx1 | safety and tolerability [3]: safe and well tolerated | motor functions [4]: improved motor functions | activity in the cage environment [5]: more active | hind limb clasping phenotype [5]: significantly reduced clasping phenotype | nest building [5]: build better nests | wire-mesh hanging assay (muscle strength) [5]: perform better; also recorded: enhanced muscle strength | climbing a wire-meshed cylinder ([5]; 2 min time allowed): perform better; also recorded: make more attempts to climb | breathing defects [6]: ameliorate some of the breathing defects | learning and memory [7]: learning and memory are improved | hippocampal neurogenesis ([8]; compared to vehicle, doublecortin staining): enhanced | dendritic arborization ([8]; compared to vehicle, hippocampus): enhanced | proliferation of cells in the subventricular zone (SVZ) ([8]; ki67): Enhanced proliferation | staining for glial fibrillary acidic protein (GFAP) [9, 13]: reduced staining | staining for glutamine synthetase (GS) [9, 13]: reduced staining | numbers of microglia (microglial biomarkers) ([9]; brain sections of Rett mice, some of the treated animals): numbers were reduced | Iba-1 expression ([9]; hippocampal region of Rett mice, versus vehicle-treated group): lower levels | abundance of Bifidobacteria in the GI tract [10]: did not increase | abundance of the phylum Tenericutes [10]: increased abundance | GI and metabolic symptoms of Rett mice ([11]; Rett mice): eliminated the GI and metabolic symptoms | inflammatory appearance of the GI tract ([11]; Rett mice): reduces the inflammatory appearance of the GI tract | colon length [11, 14]: selectively elongates the colon | intestinal obesity [11, 14]: prevents intestinal obesity | accumulation of abdominal fat ([11]; female Rett mice): prevented | weight gain ([11]; female Rett mice): prevented | bacterial load [12]: decreases bacterial load | leaky gut [12]: corrects leaky gut | severity of aberrant behaviors (anxiety, irritability, depression, motor symptoms, cognitive impairment) [12]: reduces the severity of several aberrant behaviors

— patent US20200023018A1, “MODULATION OF GUT MICROBIOTA IN HUNTINGTON'S DISEASE AND RETT SYNDROME” (priority 2017, published 2020)
